{
  "source": "ChEMBL document CHEMBL4138126",
  "about": "“Synthesis, antiproliferative, anti-tubulin activity, and docking study of new 1,2,4-triazoles as potential combretastatin analogues” (Eur J Med Chem, 2017)",
  "assay_type_in_all_cases": "functional",
  "key": {"[1]": {"test_system": "HepG2", "test": "Induction of apoptosis in human HepG2 cells assessed as early apoptotic cells level at 1.41 uM by Annexin V and propidium iodide staining based flow cytometry"}, "[2]": {"test_system": "HepG2", "test": "Induction of cell cycle arrest in human HepG2 cells assessed as accumulation at S phase at cytotoxic IC50 by propidium iodide staining based flow cytometry (reference value: 25.2%)"}, "[3]": {"test_system": "HepG2", "test": "Induction of apoptosis in human HepG2 cells assessed as viable cells level at 1.41 uM by Annexin V and propidium iodide staining based flow cytometry"}, "[4]": {"test_system": "HepG2", "test": "Induction of apoptosis in human HepG2 cells assessed as late apoptotic cells level at 1.41 uM by Annexin V and propidium iodide staining based flow cytometry"}, "[5]": {"test_system": "HepG2", "test": "Induction of cell cycle arrest in human HepG2 cells assessed as accumulation at G1 phase at cytotoxic IC50 by propidium iodide staining based flow cytometry (reference value: 66.4%)"}, "[6]": {"test_system": "HepG2", "test": "Induction of apoptosis in human HepG2 cells at cytotoxic IC50 by propidium iodide staining based flow cytometry (reference value: 1.2%)"}},
  "data": [
    {"smiles": "CCOc1ccc(-n2nc(C(=O)NCc3cc(F)cc(F)c3)nc2-c2cc(OC)c(OC)c(OC)c2)cc1", "values": [
      {"measurement": "Activity", "setting": "[1]", "result": 21, "unit": "%"},
      {"measurement": "Activity", "setting": "[2]", "result": 26.3, "unit": "%"},
      {"measurement": "Activity", "setting": "[3]", "result": 62, "unit": "%"},
      {"measurement": "Activity", "setting": "[4]", "result": 14, "unit": "%"},
      {"measurement": "Activity", "setting": "[5]", "result": 35.4, "unit": "%"},
      {"measurement": "Activity", "setting": "[6]", "result": 16.7, "unit": "%"}
    ]}
  ]
}
